Laboratory results published in patent US6951647B2, “T cell binding ligand peptides and method of inducing a cellular immune response” (Cel-Sci Corporation, priority 2001, dated 2005).
“And” between values parts separate entries of the source, which are not always exact repeats. Identical values can stand only once. Marks after values point to notes of the source that are not given here.

Key:
D Clade = test: ELISA cross clade recognition by sera of immunized mice, D Clade; assay type: in vivo; settings: day 63 test bleeding, sera 1:200, individual mouse
Experimental: (§1) Mice in groups (5-10 animals per group as designated) are immunized with the LEAPS constructs (25 μg/dose) of SEQ ID NO's:37, 38 and 39, in 0.2 mL emulsified 1:1 with adjuvant (Seppic's ISA-51 or Corixa's microfluidized MPL S/E) on days 0 and 14. Mice are evaluated by Delayed Type of Hypersensitivity (DTH) by inoculation on day 26 with 20 μl of a solution of saline or mH (SEQ ID NO:6) (25 μg in saline) in the left or right ear respectively. The DTH response is determined by measurement of the ear thickness 48 hours later and expressed as increase in ear thickness (mm) of experimental ear compared to that of the control ear. Individual animal sera are collected for measurement of antibody on day 28, 42, 63 and 77. Sera from individual animals and group pools are evaluated for specific anti-mH antibody, for total antibody, IgG1, IgG2a and IgG3 antibody isotype and cross clade titer at selected time points as indicated.
(§2) The mouse sera for the ELISA was used at a dilution of 1:200. Again, clearly, the construct provides higher signals indicative of higher levels of the antibodies that recognized other clades besides the parental one (Clade B) of mH.
(§3) A cross clade analysis for pools of day 42 test bleedings from the same groups as used in Table 3, were obtained and the results are shown in Table 4.

modified HGP-30 [1] = test: ELISA antibody screening of sera of immunized mice on modified HGP-30; assay type: in vivo; settings: day 63 test bleeding, sera 1:200, individual mouse
Experimental: as §1, with “indicated. […]” for “indicated.”

[2] = system: modified HGP-30 (mH, SEQ ID NO:6); test: Isotype analysis (ELISA) of anti-mH antibody in sera of immunized mice; assay type: in vivo; set-up: IgG1 / IgG2a / IgG2b / IgG3: unit not given here; settings: ELISA signal, day 42 test bleeding
Experimental: as §1
The results of an isotype analysis of day 42 test bleedings with G′-mH (SEQ ID NO:37), G-mH (SEQ ID NO:38), J-mH (SEQ ID NO:39), F-mH (SEQ ID NO:40) and F-HGP-30 (SEQ ID NO:41), are shown in Table 1.
An isotype analysis for pools of day 28 test bleedings G-mH, G′-mH and m-HGP-30/KLH using either MPL S/E or ISA51 as adjuvant, are shown in Table 3.

modified HGP-30 [3] = test: Delayed Type Hypersensitivity (DTH) ear thickness response with antisera depletion of CD4 or CD8 cells; assay type: in vivo, Mice
Experimental: as §1
Select immunoglobulin preparations were obtained from Dr. Stephen Hoffmann, Malaria Program, U.S. Navy. […] This allows one to determine some parts of the nature of various cellular (e.g., T-cell) involvement in the early stage of immune system response with the LEAPS peptide-constructs. It is recognized, however, that this is only a temporary event since new cells are continuously being developed from stem cells and the animals become resistant to the reagents.
The animals are pretreated with the antisera as indicated for 5 days before the initial immunization with peptide-construct having SEQ ID NO:37 or SEQ ID NO:39 on […]. No pretreatment is done before the booster immunization on day 14 or DTH on day 26-28. The mice are then inoculated with the test antigen or saline (control) on day 26 in the left and right ears, respectively, and the DTH response is measured on day 28. The difference between the values for the test and saline control ears is calculated for each group of five animals along with the standard error of the mean (sem) and the results are plotted (see FIG. 1). Also shown in FIG. 1 are values for the untreated animals and animals immunized on day 14 only.
The DTH (Delayed Type Hypersensitivity) data is statistically significant with a t-test of 0.05 for SEQ ID NO:39 and anti-CD8. The DTH for pretreatment of SEQ ID NO:37 immunized mice with anti-CD4 was just above the cutoff limit for statistical significance due to a weaker DTH response and small group size.

C Clade = test: ELISA cross clade recognition by sera of immunized mice, C Clade; assay type: in vivo; settings: day 63 test bleeding, sera 1:200, individual mouse
Experimental: as §1, §2, §3

B Clade = test: ELISA cross clade recognition by sera of immunized mice, B Clade; assay type: in vivo; settings: day 63 test bleeding, sera 1:200, individual mouse
Experimental: as §1, §2, §3

E Clade = test: ELISA cross clade recognition by sera of immunized mice, E Clade; assay type: in vivo; settings: day 63 test bleeding, sera 1:200, individual mouse
Experimental: as §1, §2, §3

[4] = Day 14 Injection Only (immunized with construct on day 14 only), average of group of 5 mice
[5] = Treatment Anti CD4, daily for 5 days before immunization, average of group (5 mice)
[6] = Treatment Anti CD8, daily for 5 days before immunization, average of group of 5 mice
[7] = Treatment None, average of group (5 mice), ISA 51 adjuvant
[8] = Treatment Normal rat IgG, daily for 5 days before immunization, average of group (5 mice)

Substance	ELISA signal on D Clade (D Clade)	ELISA signal on modified HGP-30 (modified HGP-30 [1])	IgG1 ([2]; group Average)	IgG2a ([2]; group Average)	IgG2b ([2]; group Average)	IgG3 ([2]; group Average)	IgG1 ([2]; individual mouse)	IgG2a ([2]; individual mouse)	IgG2b ([2]; individual mouse)	IgG3 ([2]; individual mouse)	ELISA signal on C Clade (C Clade)	ELISA signal on B Clade (B Clade)	ELISA signal on E Clade (E Clade)	also measured
DLL KNG ERI EKV EGG GAT LYS VHQ RID VKD TKE ALE KIE EEQ NKS (DGQEEKAGVVSTGLIGGGQYSWFVNGTF) [SEQ ID NO: 59, Peptide J linked by GGG spacer to modified HGP-30 (mH)]	0.120 and 0.004 and 0.196 and 0.000 (6×)	0.440 and 0.011 and 0.753 and 0.905 and 0.793 and 0.100 and 0.035 and 0.000 (2×)	0.717	0.046	0.019	0.070	0.002 and 1.603 and 0.014 and 2.023 and 2.199 and 0.053 and 0.057 and 0.505 and 0.000	0.002 (2×) and 0.027 and 0.000 (2×) and 0.299 and 0.060 and 0.014 and 0.011	0.002 and 0.014 and 0.000 (5×) and 0.113 and 0.039	0.017 and 0.032 and 0.009 and 0.227 and 0.324 and 0.000 (2×) and 0.003 and 0.016	2.421 and 1.699 and 1.295 and 0.969 and 0.665 and 0.780 and 0.171 and 1.370 and 2.322	0.262 and 0.000 (6×) and 0.575 and 0.026	2.431 and 1.565 and 0.789 and 0.788 and 0.554 and 0.722 and 0.142 and 1.379 and 2.379	Left Ear thickness, inoculated day 26 with HGP-30, measured after 48 hours (modified HGP-30 [3]; [4]): 0.254 mm; Right Ear thickness, inoculated day 26 with saline, measured after 48 hours (modified HGP-30 [3]; [4]): 0.231 mm; DTH % increase (L-R)/R (modified HGP-30 [3]; Day 14 Injection Only, average of group of 5 mice): 10.00%; Left Ear thickness, inoculated day 26 with HGP-30, measured after 48 hours (modified HGP-30 [3]; [5]): 0.288 mm; Right Ear thickness, inoculated day 26 with saline, measured after 48 hours (modified HGP-30 [3]; [5]): 0.240 mm; DTH % increase (L-R)/R (modified HGP-30 [3]; Treatment Anti CD4, average of group (5 mice)): 20.00%; Left Ear thickness, inoculated day 26 with HGP-30, measured after 48 hours (modified HGP-30 [3]; [6]): 0.233 mm; Right Ear thickness, inoculated day 26 with saline, measured after 48 hours (modified HGP-30 [3]; [6]): 0.220 mm; DTH % increase (L-R)/R (modified HGP-30 [3]; Treatment Anti CD8, average of group of 5 mice): 6.20%***; DTH % increase (L-R)/R (modified HGP-30 [3]; Treatment None, average of group (5 mice)): 29.30%; Left Ear thickness, inoculated day 26 with HGP-30, measured after 48 hours (modified HGP-30 [3]; [7]): 0.288 mm; Right Ear thickness, inoculated day 26 with saline, measured after 48 hours (modified HGP-30 [3]; [7]): 0.222 mm; Left Ear thickness, inoculated day 26 with HGP-30, measured after 48 hours (modified HGP-30 [3]; [8]): 0.296 mm; Right Ear thickness, inoculated day 26 with saline, measured after 48 hours (modified HGP-30 [3]; [8]): 0.227 mm; DTH % increase (L-R)/R (modified HGP-30 [3]; Treatment Normal rat IgG, average of group (5 mice)): 30.60%; Type of cells required for a DTH response (modified HGP-30 [3]; cell specific antisera as depletion reagent for the primary immunization (FIG. 1)): requires the presence and presumably activation of CD8+ but not CD4+ cells
VQG EES NDK GGG YSV HQR IDV KDT KEA LEK IEE EQN KSK KKA (DLLKNGERIEKVEGGGSTAPPAHGV) [SEQ ID NO: 63, Peptide F linked by GGG spacer to HGP-30]	0.000 (5×) and 0.012 and 0.005 and 1.941 and 0.386 and 0.050	0.065 and 0.216 and 0.128 and 0.000 and 0.110 and 0.017 and 0.201 and 0.623 and 0.747 and 0.013	0.652	0.071	0.024	0.044	0.761 and 0.181 and 0.649 and 0.417 and 0.022 and 1.379 and 0.030 and 0.349 and 0.717 and 2.018	0.051 and 0.018 and 0.020 and 0.007 and 0.000 (2×) and 0.048 and 0.026 and 0.192 and 0.350	0.003 and 0.001 and 0.007 and 0.005 and 0.006 and 0.028 and 0.047 and 0.000 and 0.027 and 0.117	0.040 and 0.006 and 0.104 and 0.173 and 0.009 and 0.013 and 0.007 and 0.000 and 0.058 and 0.028	0.000 (5×) and 0.135 and 0.010 and 1.878 and 0.650 and 1.051	0.000 (6×) and 0.282 and 1.977 and 0.667 and 0.011	0.000 (7×) and 1.565 and 0.042 and 1.010	
